From patent publication US20250032485A1, “APPLICATION OF IMIDAZO [1,2-A] PYRAZINE COMPOUNDS OR THEIR PHARMACEUTICALLY ACCEPTABLE SALTS IN THE PREPARATION OF ANTI-CORONAVIRUS DRUGS” (GUANGZHOU MEDICAL UNIVERSITY, priority 2023, published 2025)

Molecular target: PLpro of SARS-CoV-2 (Severe acute respiratory syndrome coronavirus 2, UniProt P0DTD1)
Assay: Enzyme activity test in vitro: inhibition of PLpro at fixed concentration 50 μM (RLRGG-AMC substrate)
Type: biochemical
Details: read-out: Inhibition rate at 50 μM (%)

SMILES	inhibition at 50 µM [%]
O=C(O)c1ccc(Nc2c(-c3cccc(Br)c3)nc3cnccn23)cc1 [P18234, 4-[[2-(3-bromophenyl)imidazo[1,2-a]pyrazin-3-yl]amino] benzoic acid]	20.5
COc1ccc(-c2nc3cnccn3c2Nc2ccc3c(c2)OCO3)cc1OC [P19444, N-(1,3-benzodioxol-5-yl)-2-(3,4-dimethoxy-phenyl)imidazo [1,2-a]pyrazin-3-amine]	42.2
CN(C)c1ccc(-c2nc3cnccn3c2Nc2cccc(C(=O)O)c2)cc1 [P19447, 3-[[2-[4-(dimethyl-amino)phenyl]imidazo [1,2-a]pyrazin-3-yl]amino]benzoic acid]	42.1
O=C(O)c1cccc(Nc2c(-c3cccc(Cl)c3)nc3cnccn23)c1 [P19457, 3-[[2-(3-chlorophenyl)imidazo[1,2-a]pyrazin-3-yl]amino] benzoic acid]	39.7
COc1ccc(-c2nc3cnccn3c2Nc2ccccc2C)cc1OC [P19463, 2-(3,4-dimethoxy-phenyl)-N-(2-methylphenyl)imidazo[1,2-a]pyrazin-3-amine]	40.7
CNC(=O)c1ccc(Nc2c(-c3ccc(OC)c(OC)c3)nc3cnccn23)cc1 [P19464, 4-[[2-(3,4-dimethoxy-phenyl)imidazo[1,2-a]pyrazin-3-yl]amino]-N-methyl-benzamide]	42.2
Cc1ccc(-c2nc3cnccn3c2Nc2ccc(C(=O)O)cc2)cc1 [P19465, 4-[[2-(4-methyl-phenyl)imidazo[1,2-a]pyrazin-3-yl]amino] benzoic acid]	15.9
COC(=O)c1cccc(Nc2c(-c3cc(Br)ccc3O)nc3cnccn23)c1 [P19466, methyl 3-[[2-(5-bromo-2-hydroxyphenyl)imidazo [1,2-a]pyrazin-3-yl]amino]benzoate]	31.9
O=C(O)c1cccc(Nc2c(-c3cccc(Br)c3)nc3cnccn23)c1 [P19467, 3-[[2-(3-bromophenyl)imidazo[1,2-a]pyrazin-3-yl]amino] benzoic acid]	27.3
CNC(=O)c1ccc(Nc2c(-c3ccc(OC)cc3)nc3cnccn23)cc1 [P19472, 4-[[2-(4-methoxy-phenyl)imidazo[1,2-a]pyrazin-3-yl]amino]-N-methylbenzamide]	28.1
COc1ccc(-c2nc3cnccn3c2Nc2ccc(C(C)C)cc2)cc1OC [P19473, 2-(3,4-dimethoxy-phenyl)-N-(4-propan-2-ylphenyl)imidazo [1,2-a]pyrazin-3-amine]	37.5
CN(C)c1ccc(-c2nc3cnccn3c2Nc2ccc(C(=O)O)cc2)cc1 [P19475, 4-[[2-[4-(dimethyl-amino)phenyl]imidazo [1,2-a]pyrazin-3-yl]amino]benzoic acid]	35.1
COC(=O)c1cccc(Nc2c(-c3ccccc3)nc3cnccn23)c1 [P19476, methyl 3-[(2-phenylimidazo [1,2-a]pyrazin-3-yl)amino]benzoate]	34
O=C(O)c1cccc(Nc2c(-c3ccc(F)cc3)nc3cnccn23)c1 [P19477, 3-[[2-(4-fluorophenyl)imidazo[1,2-a]pyrazin-3-yl]amino] benzoic acid]	5.91
CNC(=O)c1ccc(Nc2c(-c3ccc(C)cc3)nc3cnccn23)cc1 [P19482, N-methyl-4-[[2-(4-methylphenyl)imidazo [1,2-a]pyrazin-3-yl]amino]benzamide]	34.1
COc1ccc(-c2nc3cnccn3c2Nc2c(C)cccc2C)cc1OC [P19483, 2-(3,4-dimethoxy-phenyl)-N-(2,6-di-methylphenyl)imidazo [1,2-a]pyrazin-3-amine]	37.8
COC(=O)c1ccc(-c2nc3cnccn3c2Nc2ccc(Cl)cc2)cc1 [P19484, methyl 4-[3-(4-chloroanilino)imidazo[1,2-a]pyrazin-2-yl]benzoate]	42.4

SMILES	inhibition at 50 µM [%]
COC(=O)c1cccc(Nc2c(-c3ccc(OC)cc3)nc3cnccn23)c1 [P19485, methyl 3-[[2-(4-methoxy-phenyl)imidazo[1,2-a]pyrazin-3-yl]amino] benzoate]	36
COc1ccc(-c2nc3cnccn3c2Nc2cccc(C(=O)O)c2)cc1 [P19486, 3-[[2-(4-methoxy-phenyl)imidazo[1,2-a]pyrazin-3-yl]amino] benzoic acid]	40.1
O=C(O)c1cccc(Nc2c(-c3cc(Br)ccc3O)nc3cnccn23)c1 [P19487, 3-[[2-(5-bromo-2-hydroxyphenyl)imidazo [1,2-a]pyrazin-3-yl]amino]benzoic acid]	27.3
NC(=O)c1cccc(Nc2c(-c3ccc(Cl)cc3)nc3cnccn23)c1 [P19492, 3-[[2-(4-chlorophenyl)imidazo[1,2-a]pyrazin-3-yl]amino] benzamide]	35.4
COc1ccc(Nc2c(-c3ccc(OC)c(OC)c3)nc3cnccn23)cc1 [P19493, 2-(3,4-dimethoxy-phenyl)-N-(4-methoxy-phenyl)imidazo[1,2-a]pyrazin-3-amine]	32.3
COC(=O)c1ccc(-c2nc3cnccn3c2Nc2cccc(C(=O)OC)c2)cc1 [P19494, methyl 3-[[2-(4-methoxy-carbonylphenyl)imidazo [1,2-a]pyrazin-3-yl]amino]benzoate]	25.4
COC(=O)c1cccc(Nc2c(-c3ccc(SC)cc3)nc3cnccn23)c1 [P19495, methyl 3-[[2-(4-methyl-sulfanylphenyl)imidazo [1,2-a]pyrazin-3-yl]amino]benzoate]	41.7
O=C(O)c1cccc(Nc2c(-c3ccc(O)cc3)nc3cnccn23)c1 [P19496, 3-[[2-(4-hydroxy-phenyl)imidazo[1,2-a]pyrazin-3-yl]amino] benzoic acid]	40.5
O=C(O)c1cccc(Nc2c(-c3ccccc3)nc3cnccn23)c1 [P19497, 3-[(2-phenylimidazo [1,2-a]pyrazin-3-yl)amino]benzoic acid]	31.2
CSc1ccc(-c2nc3cnccn3c2Nc2cccc(C(N)=O)c2)cc1 [P19502, 3-[[2-(4-methyl-sulfanylphenyl)imidazo [1,2-a]pyrazin-3-yl]amino]benzamide]	39.1
COc1ccc(-c2nc3cnccn3c2Nc2ccc(Cl)cc2)cc1OC [P19503, N-(4-chlorophenyl)-2-(3,4-dimethoxy-phenyl)imidazo[1,2-a]pyrazin-3-amine]	43.6
CCOC(=O)c1ccc(Nc2c(-c3ccc(O)cc3)nc3cnccn23)cc1 [P19504, ethyl 4-[[2-(4-hydroxy-phenyl)imidazo[1,2-a]pyrazin-3-yl]amino] benzoate]	32.6
COC(=O)c1cccc(Nc2c(-c3ccc(O)c(OC)c3)nc3cnccn23)c1 [P19505, methyl 3-[[2-(4-hydroxy-3-methoxyphenyl)imidazo [1,2-a]pyrazin-3-yl]amino]benzoate]	44.7
COc1cc(-c2nc3cnccn3c2Nc2cccc(C(=O)O)c2)ccc1O [P19506, 3-[[2-(4-hydroxy-3-methoxyphenyl)imidazo [1,2-a]pyrazin-3-yl]amino]benzoic acid]	34
CNC(=O)c1cccc(Nc2c(-c3ccc(Cl)cc3)nc3cnccn23)c1 [P19512, 3-[[2-(4-chlorophenyl)imidazo[1,2-a]pyrazin-3-yl]amino]-N-methylbenzamide]	41.6
CCc1cccc(C)c1Nc1c(-c2ccc(OC)c(OC)c2)nc2cnccn12 [P19513, 2-(3,4-dimethoxy-phenyl)-N-(2-ethyl-6-methylphenyl)imidazo [1,2-a]pyrazin-3-amine]	38.8
